As a reminder, the logP is a log measure of how a compound divides between an organic and an aqueous phase. Low values mean lower lipophilicity, high ones higher lipophilicity.

In the SangsterLogP compilation one finds logP data, which are given here for 21 compounds.

In turn, `Cc1noc(-c2ccc(N)cc2)n1` showed a logP of 1.89.
Next, `CC(C)(C)c1nnc(-c2ccc(N)cc2)o1`: 2.53; `CCc1noc(-c2ccc(N)cc2)n1`: 2.22; `CCCc1noc(-c2ccc(N)cc2)n1`: 2.61.
`Nc1ccc(-c2nc(-c3ccccc3)no2)cc1` displayed a logP of 3.48.
Next, `CCCCC(=O)c1ccc(N)cc1`: 2.48.
`CCCc1nnc(-c2ccc(N)cc2)s1` returned a logP of 2.53.
Under `CCCCc1nnc(-c2ccc(N)cc2)o1` stands 2.66; under `Nc1ccc(-c2nnc(Cc3ccccc3)o2)cc1`, 2.82; under `CC(C)c1noc(-c2ccc(N)cc2)n1`, 2.57.
Under `CCc1nc(-c2ccc(N)cc2)no1` stands 2.13; under `Nc1ccc(-c2nnc(-c3ccccc3)o2)cc1`, 2.91.
Compound `CCCc1nc(-c2ccc(N)cc2)no1` showed a logP of 2.54.
Under `CCC(=O)c1ccc(N)cc1` stands 1.65; under `Nc1ccc(-c2nc(Cc3ccccc3)no2)cc1`, 3.24.
Compound `CC(C)c1nnc(-c2ccc(N)cc2)o1` showed a lipophilicity (logP) of 2.23.
Under `Cc1nnc(-c2ccc(N)cc2)o1` stands 1.63; under `CCc1nnc(-c2ccc(N)cc2)o1`, 1.92; under `CCc1nsc(-c2ccc(N)cc2)n1`, 2.39.
Next, `CCCc1nnc(-c2ccc(N)cc2)o1`: 2.27; `Cc1nc(-c2ccc(N)cc2)no1`: 1.71.
